What is called pKa is the negative logarithm of the acid dissociation constant.

The values that follow come from the pKa sets of Baltruschat and Czodrowski (2020).

Take `Cc1cc(Nc2ccc(O)cc2)c(C(C)C)cc1O`: for the setting “acidic group”, the pKa is 9.85.
For the setting “acidic group”, `CC(=O)C(Cc1ccc(C#N)cc1)C(C)=O` gave a pKa of 9.69.
`CN(C)Cc1ccccc1CO` returned a pKa (basic group) of 8.78.
The same measure, in the same setting: under `Cc1ccccc1/C(=N\CCCN(C)C)c1cccc2ccccc12` stands 8.8.
For the setting “acidic group”, `O=C1CCc2ccc([N+](=O)[O-])cc2C1` registered a pKa of 11.8.
For the compound `Nn1cnnc1`, the pKa turned out to be 11.8 (acidic group) and 2.53 (basic group).
With `O=[N+]([O-])/C=C/c1ccc(O)cc1`, the pKa (acidic group) was 7.98.
Still for that read-out and setting: under `CCCCCP(=O)(O)CCCCC` stands 3.23; under `CC(=O)CC(=O)CC(C)C`, 9.07.
On the same count and under the same terms, under `O=C1CCc2cc(I)ccc2C1` stands 12.4.
Turning to `NC(=O)N/N=C/c1ncnc2nc[nH]c12`, the pKa is, setting by setting: (acidic group) 9.1; (basic group) 2.1.
As to `CCn1nnnc1CC(=O)O`, where the note is “acidic group”, the pKa amounted to 2.85.
In turn, `Nc1ccccc1-c1nc2ccccc2s1` showed a pKa (basic group) of 2.6.
Still for that read-out and setting: under `CCN(CCC#N)CCC#N` stands 4.55.
In turn, `[NH3+][C@@H](Cc1[nH+]c[nH]c1I)C(=O)O` had a pKa (acidic group) of 1.65.
Where the note is “basic group”, `NC(CCc1ccc([N+](=O)[O-])cc1)C(=O)[O-]` (stereo not given) returned a pKa of 9.1.
In turn, `Cc1ccc(N)cc1C[NH3+]` gave a pKa (basic group) of 4.67.
The same measure, in the same setting: under `Cn1ncc2ccccc21` stands 0.51; under `C=C(C)C(=O)OCCNCC(C)C`, 8.91.
The compound `O=c1[nH]cnc2[nH]ncc12` yielded a pKa (acidic group) of 9.38.
Still for that read-out and setting: under `Nc1nc[nH+]c(S)c1N` stands 2.21.
`CC(=O)n1cccn1` had a pKa (basic group) of 3.16.
Regarding `Nc1ccc(O)c2ncccc12`, the pKa was determined as 11.2 (acidic group) and 5.67 (basic group).
The compound `Cc1ccc(C(=O)O)cc1O` came in with a pKa (acidic group) of 4.32.
On to `C[C@H]1CC[C@@H]2CCCN21`, for which, under “basic group”, the pKa was found to be 11.7.
The compound `CC(C)NCC[NH2+]C(C)C` gave a pKa (basic group) of 7.59.
The compound `CC1(C)SCNC1C(=O)[O-]` (stereo not given) showed a pKa (basic group) of 6.34.
Still for that read-out and setting: under `Nc1ccc(-c2ccccc2)cc1` stands 4.38.
Consider `COc1cc(S(C)=O)ccc1-c1nc2cnncc2[nH]1` (stereo not given), for which the pKa was 8.49 (acidic group) and 3.81 (basic group).
Regarding `CCCn1ccnc1CO`, for the setting “basic group”, the pKa came out at 7.04.
Consider `O=c1[nH]c2ccccc2nc1[O-]`, for which, for the setting “acidic group”, the pKa was determined as 12.3.
Still for that read-out and setting: under `O=[N+]([O-])/C(=N/O)c1ccc(Cl)cc1` stands 6.6.
`COc1cc2c(cc1OC)C(=O)Cc1ccc3c(c1CN(C)CC2)OCO3`: the pKa (basic group) is 8.09.
The same measure, in the same setting: under `CC1CCCCN1C` (stereo not given) stands 10.3.
As to `Cc1cc(O)c(C(C)C)cc1C`, the pKa (acidic group) was determined as 10.8.
Under “basic group”, `COC(=O)c1ccc(N)cc1` gave a pKa of 2.44.
Under “acidic group”, `CSc1cccc(O)c1` displayed a pKa of 9.47.
For `CCCNC1c2ccccc2C=Cc2ccccc21`, for the setting “basic group”, the pKa was 8.9.
On the same count and under the same terms, under `CNc1cccc(C)c1` stands 4.94.
On the same count and under the same terms, under `CN(C)c1cc[n+](C)c([O-])n1` stands 4.2.
`Cc1cc(C(=O)O)c(C)o1` gave a pKa (acidic group) of 4.64.
The compound `Cc1cccc2cc3ccccc3nc12` came in with a pKa (basic group) of 4.5.
Same read-out and setting: under `CCOC(=O)CCN(C)C` stands 8.6.
Still for that read-out and setting: under `C[NH+](C)CCCNc1ccnc2cccc([N+](=O)[O-])c12` stands 6.39.
With `Cc1cccc([Se]CC(=O)O)c1`, for the setting “acidic group”, the pKa is 3.78.
The same measure, in the same setting: under `NC(=S)Nc1ccc(Br)cc1` stands 12.3.
On to `N[C@H](C(=O)[O-])[C@H](O)C(=O)[O-]`, for which the pKa (basic group) was 8.75.
As to `C[NH+](C)Cc1cc(Br)ccc1O`, the pKa (acidic group) worked out at 7.58.
On to `Cc1nccc2c1[nH]c1ccc([N+](=O)[O-])cc12`, for which the pKa (basic group) is 6.24.
The same measure, in the same setting: under `CCN(CC)Cc1cc(Cl)ccc1[O-]` stands 11.2.
On to `CC(=O)C1(c2cccc(O)c2)CCN(C)CC1`, for which the pKa (basic group) came out at 8.61.
`Cc1ccc(O)c(C(=O)[O-])c1` yielded a pKa (acidic group) of 14.
Same read-out and setting: under `Cc1cc([N+](=O)[O-])cc2c1nnn2O` stands 3.43.
Still for that read-out and setting: under `CCCCc1c(C)nn(-c2ccccc2)c1O` stands 11.4; under `Cc1nnnn1CC(=O)O`, 2.16.
Compound `c1ccc(-c2ccc(NCC[NH+]3CCOCC3)nn2)cc1` yielded a pKa (basic group) of 3.74.
For the compound `N#CC(Cc1ccccc1)C(=O)O` (stereo not given), the pKa (acidic group) is 2.24.
For `NCCCCCCCCCCCCN`, where the note is “basic group”, the pKa worked out at 10.8.
Regarding `COc1ccc(CN)cc1OC`, the pKa (basic group) turned out to be 9.39.
On to `COc1cccc(CN)c1O`, for which the pKa is, setting by setting: (acidic group) 11.1; (basic group) 8.7.
In turn, `Cc1cc(/N=N/c2ccc(S([NH-])(=O)=O)cc2)cc(C(=O)[O-])c1O` registered a pKa (acidic group) of 12.1.
Compound `CC1=Nc2ccc(C)cc2N=C(C)C1` had a pKa (basic group) of 4.
The same measure, in the same setting: under `Nc1ccc(Cl)cc1` stands 3.96.
`CCCNC(O)=S`: where the note is “acidic group”, the pKa stood at 0.52.
Same read-out and setting: under `COc1cccc(S(N)(=O)=O)c1` stands 9.39.
Same read-out and setting: under `O=C(O)CC(O)c1ccccc1` (stereo not given) stands 4.4.
Take `Cc1nc2c(C)ccc([N+](=O)[O-])c2c(NCCC[NH+](C)C)c1C`: the pKa (basic group) was found to be 6.67.
For `Oc1ccc2c(c1)CCC2`, for the setting “acidic group”, the pKa amounted to 10.3.
In turn, `NC1(C(=O)[O-])CCCCC1` gave a pKa (basic group) of 10.
For the compound `COc1cc(C(=O)O)cc(OC)c1O`, the pKa (acidic group) worked out at 4.2.
On to `OCCN(CCO)CCc1nnn[nH]1`, for which, under “basic group”, the pKa amounted to 9.2.
The same measure, in the same setting: under `NCCc1ccc([N+](=O)[O-])cc1` stands 9.42; under `Nc1ncnc(N)c1N`, 5.78; under `c1ccc(-c2ccncc2)cc1`, 5.3.
`O=Cc1c(O)cccc1Cl` gave a pKa (acidic group) of 8.26.
On to `Nc1ccc2cccc([N+](=O)[O-])c2c1`, for which the pKa (basic group) stood at 2.86.
On the same count and under the same terms, under `CCCNC(=O)[C@H](Cc1c[nH]c[nH+]1)NC(=O)c1cccc(CNCC[NH3+])n1` stands 5.9.
Consider `NCCc1ccc(O)cc1`, for which the pKa (acidic group) turned out to be 10.8 and the pKa (basic group) was 9.45.
Consider `[NH3+]c1cccc(C(=O)O)c1`, for which, where the note is “acidic group”, the pKa was found to be 3.09.
`COc1cccnc1`: the pKa (basic group) stood at 4.89.
On the same count and under the same terms, under `CCCCCNCc1ccccc1O` stands 8.65.
Regarding `O=C([O-])CNS(=O)(=O)c1ccccc1`, the pKa (acidic group) amounted to 11.4.
The same measure, in the same setting: under `O=C(O)CC#Cc1ccccc1` stands 3.44.
Same read-out and setting: under `CC(=O)N(c1ccccc1)c1nnc(S(N)(=O)=O)s1` stands 7.32.
The compound `CN1C(=N)C(C)(C)c2ccccc21` returned a pKa (basic group) of 9.25.
On the same count and under the same terms, under `CC(C)CCNCCC(C)C` stands 10.9; under `c1cc(-c2cc[nH+]cc2)ccn1`, 3.17.
In the case of `Cn1nccc1N`, the pKa (basic group) came to 4.23.
`Cc1ccc(Br)c(O)c(=O)c1` had a pKa (acidic group) of 6.3.
On the same count and under the same terms, under `O=C(O)CNC(=O)c1cccc(O)c1O` stands 3.5.
For the setting “basic group”, `COc1nccc(C)n1` returned a pKa of 2.1.
Consider `CC(C)[C@H](C(=O)O)N1C[C@H](NC(=O)Cc2ccccc2)C1=O`, for which the pKa (acidic group) was 3.48.
`Cc1cc(-c2ccccc2)nn2cc(C[NH+]3CCOCC3)nc12` returned a pKa (basic group) of 1.5.
On to `CCCNCC(=O)[O-]`, for which, where the note is “basic group”, the pKa amounted to 10.2.
In the case of `O=[N+]([O-])c1ccc(S)c([N+](=O)[O-])c1`, the pKa (acidic group) came to 3.4.
`COc1ccc(-c2cn3ccsc3n2)c(OC)c1`: the pKa (basic group) is 4.67.
Still for that read-out and setting: under `[NH3+]/N=C/c1ncnc2nc[nH]c12` stands 2.8; under `CC1CCN1` (stereo not given), 11.
Regarding `Cc1cccc(C)c1Oc1ccccn1`, under “basic group”, the pKa was 2.26.
For the compound `Cc1ccnc(C)c1`, the pKa (basic group) is 6.77.
On the same count and under the same terms, under `COc1cc(C)nc(NN)n1` stands 6.2.
With `CC(=S)Nc1ccc([N+](=O)[O-])cc1`, the pKa (acidic group) turned out to be 9.89.
Compound `N[C@@H]1CCCC[C@@H]1[NH3+]` came in with a pKa (basic group) of 6.35.
For the setting “acidic group”, `CC(C)C1CC(CC(=O)O)[NH2+]C1C(=O)[O-]` (stereo not given) yielded a pKa of 4.
On the same count and under the same terms, under `Brc1ccc(-c2nnn[nH]2)cc1` stands 3.73.
Consider `CC(=O)c1cccnc1`, for which the pKa (basic group) turned out to be 3.32.
On the same count and under the same terms, under `CC(=O)N1CCN(C)CC1` stands 7.1.
In the case of `O=S(=O)(Nc1cccc(C(F)(F)F)c1)c1ccccc1`, the pKa (acidic group) was 7.63.
For the setting “basic group”, `CN(C)Cc1cc(/N=N/c2ccccc2)ccc1[O-]` registered a pKa of 10.2.
Still for that read-out and setting: under `CNC(=N)N(C)C` stands 13.6.
Compound `NC(=O)NS(=O)(=O)c1ccc(N)cc1` had a pKa (acidic group) of 5.41.
Still for that read-out and setting: under `Cc1ccc(O)c(C)c1` stands 10.6.
For `O=S(=O)([O-])c1cc(O)c2cn[nH]c2c1`, for the setting “acidic group”, the pKa worked out at 8.1.
Regarding `Cc1cc(N)ccc1[N+](=O)[O-]`, where the note is “basic group”, the pKa turned out to be 1.64.
The compound `Cc1cccc(Br)c1C(=O)O` returned a pKa (acidic group) of 2.71.
Still for that read-out and setting: under `Nc1nc(O)cc[nH+]1` stands 4.01; under `CC(=O)CCC(=O)O`, 4.63.
Still for that read-out and setting: under `Cc1cc(C(N)=O)cc(C)[n+]1O` stands 2.08.
Under “basic group”, `Nc1ncnc([O-])c1N` had a pKa of 9.86.
Same read-out and setting: under `CN(C)O` stands 5.2.
Same read-out and setting: under `CC[C@]1(O)C[C@@H](C)N[C@H]2CCCC[C@@H]21` stands 9.71.
With `Cc1ccc(C(=S)Nc2ccc(Br)cc2)cc1`, the pKa (acidic group) stood at 10.8.
`O=C(O)c1c2ccccc2cc2ccccc12` displayed a pKa (acidic group) of 3.65.
Consider `CC(CN1CCCCC1)C(C#N)(c1ccccc1)c1ccccc1` (stereo not given), for which the pKa (basic group) worked out at 7.54.
In turn, `O=CC(=O)O` displayed a pKa (acidic group) of 1.26.
On the same count and under the same terms, under `Cc1ccc(O)c(Cc2cc([N+](=O)[O-])ccc2O)c1` stands 6.34; under `C=C[C@@H]1CNC(=S)O1`, 10.2.
`c1ccc2[nH+]c(-c3ccncc3)[nH]c2c1` gave a pKa (basic group) of 4.47.
As for `CCCCOC(=O)c1ccc(O)cc1`, the pKa (acidic group) was determined as 8.34.
Same read-out and setting: under `CC(C)Oc1ccccc1C(=O)O` stands 4.24; under `CC(C)OO`, 12.1; under `C[C@@H](C(=O)c1ccc(O)cc1)[NH+](C)Cc1ccccc1`, 7.5.
Under “basic group”, `CCCCNCCNCCCC` showed a pKa of 10.2.
`O=C(c1ccc([N+](=O)[O-])cc1)c1cc[nH]n1` showed a pKa (acidic group) of 11.7.
For the compound `O=c1ccn([C@@H]2C[C@@H](O)[C@H](CO)O2)c(=O)[nH]1`, the pKa (acidic group) was 9.3.
Still for that read-out and setting: under `CCCC/C=[N+](\[O-])O` stands 4.5; under `CC(=N\O)/C(CN(C)C)=N\[O-]`, 12.5.
Under “basic group”, `C1CCN(CCN2CCCCC2)CC1` returned a pKa of 9.43.
As to `CC(=O)CC(=O)Nc1ccccc1`, the pKa (acidic group) stood at 9.94.
